Data reported in a compilation of properties of binary mixtures (doi:10.1016/j.molliq.2016.07.039).

Assay: xn = mol fraction of the nth substance listed
Details: 101 kPa

CC[N+](CC)(CC)CC.[Cl-] + CC(=O)CCC(=O)O
x1 = 0.25
Details	electrical conductivity [S/m]	viscosity [mPa·s]
293.15 K	0.075	130.1
298.15 K	0.105	–
303.15 K	0.138	69.8
308.15 K	0.172	–
313.15 K	0.215	39.1
318.15 K	0.265	–
323.15 K	0.318	27.1
328.15 K	0.373	–
333.15 K	0.453	18.71
338.15 K	0.524	–
343.15 K	0.587	–

CC(=O)CCC(=O)O + CCCC[N+](CCCC)(CCCC)CCCC.[Cl-]
x1 = 0.75
Details	electrical conductivity [S/m]	viscosity [mPa·s]
293.15 K	0.035	121.7
298.15 K	0.045	–
303.15 K	0.06	65.6
308.15 K	0.072	–
313.15 K	0.089	36.7
318.15 K	0.113	–
323.15 K	0.129	25.5
328.15 K	0.151	–
338.15 K	0.213	–
